Results as given in the supplement of paper PMC10307832.

How the values were obtained:
Assay in all cases: relative viability (nuclei count vs DMSO), 5 days (fraction); higher = more cells survive
Everolimus + Navitoclax = compound: CO[C@H]1C[C@@H]2CC[C@@H](C)[C@@](O)(O2)C(=O)C(=O)N2CCCC[C@H]2C(=O)O[C@H]([C@H](C)C[C@@H]2CC[C@@H](OCCO)[C@H](OC)C2)CC(=O)[C@H](C)/C=C(\C)[C@@H](O)[C@@H](OC)C(=O)[C@H](C)C[C@H](C)/C=C/C=C/C=C/1C [Everolimus] + CC1(C)CCC(c2ccc(Cl)cc2)=C(CN2CCN(c3ccc(C(=O)NS(=O)(=O)c4ccc(N[C@H](CCN5CCOCC5)CSc5ccccc5)c(S(=O)(=O)C(F)(F)F)c4)cc3)CC2)C1 [Navitoclax] (partner 0.5 µM)
How it was run: (§1)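 Nuclei were stained with Hoechst during a one-step fixation (final 0.05% Triton X-100, 1% formaldehyde, 1 ug/ml Hoechst) carried out 5 days after dosing, then counted on 4× images. The cells, lung cancer lines in 1536-well plates, had been dosed by pin tool the day after seeding with one drug alone or a fixed anchor-drug dose plus five library-drug doses (not always all listed) in √10 steps. Relative viability is the nuclei count in treated wells divided by that in vehicle wells, and each value is the median of duplicate plates.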

Everolimus + Luminespib = compound: CO[C@H]1C[C@@H]2CC[C@@H](C)[C@@](O)(O2)C(=O)C(=O)N2CCCC[C@H]2C(=O)O[C@H]([C@H](C)C[C@@H]2CC[C@@H](OCCO)[C@H](OC)C2)CC(=O)[C@H](C)/C=C(\C)[C@@H](O)[C@@H](OC)C(=O)[C@H](C)C[C@H](C)/C=C/C=C/C=C/1C [Everolimus] + CCNC(=O)c1noc(-c2cc(C(C)C)c(O)cc2O)c1-c1ccc(CN2CCOCC2)cc1 [Luminespib] (partner 0.01 µM)
How it was run: as §1

Everolimus + Foretinib = compound: CO[C@H]1C[C@@H]2CC[C@@H](C)[C@@](O)(O2)C(=O)C(=O)N2CCCC[C@H]2C(=O)O[C@H]([C@H](C)C[C@@H]2CC[C@@H](OCCO)[C@H](OC)C2)CC(=O)[C@H](C)/C=C(\C)[C@@H](O)[C@@H](OC)C(=O)[C@H](C)C[C@H](C)/C=C/C=C/C=C/1C [Everolimus] + COc1cc2c(Oc3ccc(NC(=O)C4(C(=O)Nc5ccc(F)cc5)CC4)cc3F)ccnc2cc1OCCCN1CCOCC1 [Foretinib] (partner 0.25 µM)
How it was run: as §1

Everolimus + Linsitinib = compound: CO[C@H]1C[C@@H]2CC[C@@H](C)[C@@](O)(O2)C(=O)C(=O)N2CCCC[C@H]2C(=O)O[C@H]([C@H](C)C[C@@H]2CC[C@@H](OCCO)[C@H](OC)C2)CC(=O)[C@H](C)/C=C(\C)[C@@H](O)[C@@H](OC)C(=O)[C@H](C)C[C@H](C)/C=C/C=C/C=C/1C [Everolimus] + C[C@]1(O)C[C@@H](c2nc(-c3ccc4ccc(-c5ccccc5)nc4c3)c3c(N)nccn32)C1 [Linsitinib] (partner 1 µM)
How it was run: as §1

Cell Line | relative viability (Everolimus + Navitoclax; first compound 0.01 µM) | relative viability (Everolimus + Navitoclax; first compound 0.03162 µM) | relative viability (Everolimus + Navitoclax; first compound 0.1 µM) | relative viability (Everolimus + Navitoclax; first compound 0.3162 µM) | relative viability (Everolimus + Navitoclax; first compound 1 µM) | relative viability (Everolimus + Luminespib; first compound 0.01 µM) | relative viability (Everolimus + Luminespib; first compound 0.03162 µM) | relative viability (Everolimus + Luminespib; first compound 0.1 µM) | relative viability (Everolimus + Luminespib; first compound 0.3162 µM) | relative viability (Everolimus + Luminespib; first compound 1 µM) | relative viability (Everolimus + Foretinib; first compound 0.01 µM) | relative viability (Everolimus + Foretinib; first compound 0.03162 µM) | relative viability (Everolimus + Foretinib; first compound 0.1 µM) | relative viability (Everolimus + Foretinib; first compound 0.3162 µM) | relative viability (Everolimus + Foretinib; first compound 1 µM) | relative viability (Everolimus + Linsitinib; first compound 0.01 µM) | relative viability (Everolimus + Linsitinib; first compound 0.03162 µM) | relative viability (Everolimus + Linsitinib; first compound 0.1 µM) | relative viability (Everolimus + Linsitinib; first compound 0.3162 µM) | relative viability (Everolimus + Linsitinib; first compound 1 µM)
201T | 1 | 1.09 | 1.05 | 1.07 | 1.03 | 0.85 | 0.816 | 0.838 | 0.823 | 0.874 | 0.996 | 0.913 | 0.895 | 0.795 | 0.865 | 0.805 | 0.876 | 0.78 | 0.78 | 0.823
A549 | 0.64 | 0.455 | 0.452 | 0.474 | 0.458 |  |  |  |  |  | 0.688 | 0.421 | 0.306 | 0.393 | 0.435 | 0.484 | 0.308 | 0.231 | 0.241 | 0.223
A-427 | 0.622 | 0.404 | 0.409 | 0.388 | 0.461 | 0.584 | 0.611 | 0.651 | 0.779 | 0.729 | 0.742 | 0.624 | 0.639 | 0.684 | 0.757 | 0.854 | 0.772 | 0.823 | 0.675 | 0.834
ABC-1 |  |  |  |  |  |  | 0.342 | 0.316 | 0.371 | 0.355 | 0.82 | 0.826 | 0.645 | 0.699 | 0.739 | 0.599 | 0.351 | 0.55 | 0.446 | 0.535
BEN | 0.0532 | 0.0623 | 0.063 | 0.0598 | 0.0645 | 0.191 | 0.152 | 0.201 | 0.161 | 0.168 | 0.336 | 0.268 | 0.277 | 0.323 | 0.35 | 0.571 | 0.355 | 0.338 | 0.334 | 0.326
CAL-12T | 0.438 | 0.452 | 0.35 | 0.423 | 0.498 | 0.146 | 0.138 | 0.173 | 0.159 | 0.212 | 0.628 | 0.686 | 0.651 | 0.792 | 0.821 | 0.452 | 0.56 | 0.447 | 0.616 | 0.562
COR-L23 | 0.706 | 0.597 | 0.662 | 0.636 | 0.765 | 0.417 | 0.377 | 0.461 | 0.431 | 0.268 | 0.942 | 0.993 | 0.871 | 0.97 | 0.959 | 0.552 | 0.501 | 0.603 | 0.708 | 0.652
COR-L 105 | 0.574 | 0.636 | 0.616 | 0.652 | 0.57 | 0.405 | 0.392 | 0.333 | 0.313 | 0.365 | 0.775 | 0.71 | 0.787 | 0.709 | 0.952 | 0.743 | 0.604 | 0.585 | 0.686 | 0.504
Calu-6 | 0.774 | 0.714 | 0.779 | 0.7 | 0.532 |  |  |  |  |  | 0.845 | 0.785 | 0.811 | 0.77 | 0.742 | 0.647 | 0.707 | 0.663 | 0.762 | 0.778
ChaGo-K-1 | 1.01 | 0.558 | 0.951 | 0.837 | 1.01 | 0.455 | 0.396 | 0.54 | 0.432 | 0.399 | 0.903 | 0.85 | 0.884 | 0.761 | 0.805 |  |  |  |  | 
EBC-1 | 0.211 | 0.217 | 0.153 | 0.22 | 0.222 |  |  |  |  |  | 0.109 | 0.108 | 0.103 | 0.133 | 0.0957 | 0.263 | 0.218 | 0.306 | 0.205 | 0.298
EKVX | 0.542 | 0.75 | 0.505 | 0.514 | 0.654 | 0.623 | 0.475 | 0.336 | 0.447 | 0.425 | 0.582 | 0.808 | 0.428 | 0.444 | 0.555 | 0.863 | 0.728 | 0.63 | 0.402 | 0.568
EMC-BAC-2 | 0.9 | 0.806 | 0.619 | 0.736 | 0.61 | 0.789 | 0.714 | 0.689 | 0.735 | 0.613 | 0.66 | 0.564 | 0.576 | 0.643 | 0.521 | 0.587 | 0.542 | 0.532 | 0.517 | 0.501
EPLC-272H | 0.996 | 0.697 | 0.598 | 0.602 | 0.673 | 0.162 | 0.176 | 0.188 | 0.203 | 0.263 | 0.451 | 0.414 | 0.443 | 0.417 | 0.489 | 1.15 | 0.786 | 0.64 | 0.619 | 0.657
